Measured values as given in patent US4624953A, “1-piperazinocarboxylates and pharmaceutical compositions containing them” (priority 1981, dated 1986).
Like-named read-outs stand apart in the source and are kept apart here.

Assays:
[1] = tested on: isolation-induced aggressive behaviour; test: Isolation-induced aggressive behaviour test; assay type: in vivo, male NMRI mice; conditions: Mus musculus, sc, read-out: ED50, isolation induced aggressive behaviour
Text: Male mice subjected to prolonged isolation develop aggressive behaviour against each other when paired (Yen, C. Y. et al., Arch. Int. Pharmacodyn. 123, 179, (1959); Valzelli, L., Adv. Pharmacol. 5, 79 (1967)). […] The clinical correlation of this test indicates tranquillizing and anxiolytic activities as well as antiaggressive properties as such (Duncan, R. L. et al., J. Med. Chem. 13, 1 (1970)).
This type of aggression is interesting because it is known that this kind of emotional behaviour might be located in limbic structures in the brain (MacLean, P. D., Psychosom. Med. 11, 338 (1949)).
Every week male NMRI mice, weighing 20-22 g, were isolated in Makrolon cages for three weeks with diet and water ad libitum. A piece of cardboard was placed between the cages to prevent visual contact.
To test aggressiveness the mice were paired in a neutral area, a beaker (14 cm high and diameter 14 cm). A pair is considered aggressive if both the animals show clear signs of fighting within 5 min. This fighting is characterized by biting and vocalization. As soon as fighting is seen, the mice are separated and brought to their home cage. […] Animals showing no aggression are discarded. […] The test substance is administered s.c. (0.2-0.4 ml/20 g). The mice are paired 0.5 h after the injection for trials of 5 min. duration.
The ED50 -value (mg/kg) reported is the dose inhibiting aggressive behaviour among 50 percent of the pairs 0.5 hour after drug administration.

[2] = tested on: conditioned avoidance response; test: Conditioned avoidance response (CAR), shuttle box; assay type: in vivo, female rats; conditions: Rattus norvegicus, sc
Description: The effect of the test compounds on CAR was evaluated in a shuttle box, manufactured by Ugo Basile, Italy. The female rats, weighing 150 g, were trained to avoid an electric shock (unconditioned stimulus--US) by escaping from one compartment to the other when the light from a 15 W lamp switched on (conditions stimulus--CS). When they responded to the CS, a conditioned response (CR) was considered to have been elicited.
Rats showing a stable CR of more than 80% after a three weeks' training program were used in the experiments. Groups of six rats were subcutaneously administered with various doses of the test compounds. 11/2 and 4 hours after the administration each rat was placed in the experimental box and the effect on CR was evaluated.
The mechanisms regulating conditioned responses are very complex. Both catecholaminergic and hormonal factors are of importance. [drawing 13]

[3] = tested on: isolation-induced aggressive behaviour; conditions: background statement on clinically used drugs; cited from earlier work
[4] = 0.5 h after administration, dose inhibiting aggressive behaviour among 50 percent of the pairs
[5] = 1.5 hr after administration, dose inhibiting CR in 50% of the animals, read-out: ED50, conditioned avoidance behaviour, 1.5 hr
[6] = 4 hr after administration, dose inhibiting CR in 50% of the animals, read-out: ED50, conditioned avoidance behaviour, 4 hr

| SMILES | ED50 [1, 4] [mg/kg] | ED50 [2, 5] [mg/kg] | ED50 [2, 6] [mg/kg] | also measured |
| --- | --- | --- | --- | --- |
| CN(C)CCC=C1c2ccccc2CCc2ccccc21 [Amitriptyline] | 5 | – | – | – |
| CN(C)CCCN1c2ccccc2Sc2ccc(Cl)cc21 [Chlorpromazine] | – | – | – | ED50 ([1]; 0.5 h): 1.4 mg/kg; ED50 ([2]; 1.5 h, read-out: ED50, conditioned avoidance behaviour, 1.5 hr): 3.5 mg/kg; ED50 ([2]; 4 h, read-out: ED50, conditioned avoidance behaviour, 4 hr): 5.2 mg/kg |
| CN1C(=O)CN=C(c2ccccc2)c2cc(Cl)ccc21 [Diazepam] | – | – | – | activity on isolation-induced aggressive behaviour (in words) [3]: active on this kind of aggressive behaviour |
| COC(=O)N1CCN(CCCC(c2ccc(F)cc2)c2ccc(F)cc2)CC1.Cl [I (a), 1-Carbomethoxy-4-[4,4-bis(p-fluorophenyl)butyl]piperazine hydrochloride] | 6 | 45 | 12 | – |
| CSc1ccc2c(c1)N(CCC1CCCCN1C)c1ccccc1S2 (centres unmarked) [Thioridazine] | 5 | 41 | 40 | – |
